# Like-named read-outs stand apart in the source and are kept apart here.
# Assays:
# [1] = coadministered with gemfibrozil; cited from earlier work
# [2] = Safety and tolerability (adverse events) in healthy male participants; format: in vivo, human; settings: for deaths or serious adverse events: 6 healthy men
# Text: Safety and tolerability measures included assessment of adverse events (AEs), serious adverse events (SAEs), clinical laboratory findings, vital signs (systolic and diastolic blood pressure and pulse rate), ECGs, and concurrent medications. An AE was defined as any untoward medical occurrence in a participant temporally associated with the use of an investigational product, whether or not considered related to the investigational product. […] The investigator or site staff was responsible for detecting, documenting, and reporting events that met the definition of an AE or SAE.
# [3] = Plasma daprodustat pharmacokinetics in healthy male participants (6 mg oral tablet, 50 μg IV microtracer, 25 mg oral solution); format: in vivo, human; settings: for AUC / tmax / Cmax / half-life: plasma daprodustat; for tmax: median (range); for Cmax: arithmetic mean (SD); for half-life: read-out: t½ (converted)
# Description: On day 1 of treatment period 1, after an overnight fast of at least 8 hours, each participant took a single 6 mg oral dose of daprodustat; participants continued to fast for < 3 hours when a small amount of food was administered to stimulate bile release for the Entero‐Test. After ≈1 hour, participants received 50 μg of [^14C]‐GSK1278863 (≈4.63 kBq; 125 nCi) by IV infusion over 1 hour. Blood samples were collected for 144 hours after oral dosing (until day 7). Participants were discharged on study day 7 after completion of the 144‐hour sample collection. The Entero‐Test was swallowed 3.5 hours before the oral dose of daprodustat (while in the fasted state) and removed 3 hours after the oral dose (about 1 hour after completion of the IV infusion). About 1.5 hours before string withdrawal, a food cue was used to stimulate gallbladder emptying.
# On day 1 of treatment period 2, after an overnight fast of at least 8 hours, each participant received 25 mg [^14C]‐GSK1278863 (≈2.31 MBq; 62.5 μCi) as an oral solution; participants continued to fast for 4 hours after dosing.[15] Blood, urine, and fecal samples were collected for a minimum of 144 hours (up to day 7) after dosing, depending on the amount of radioactivity excreted by each participant in excreta collected daily. Liquid scintillation counting (LSC) was performed on these excreta collections on an ongoing basis to assess recovery of the radioactivity dosed. Participants were discharged if ≥90% and <1% of the dose was excreted on both days 6 and 7.
# As per standard practice for administration of radiolabeled drug, the IV and oral dosing solutions were analyzed for daprodustat via assessment of the radioactivity and through application of the predetermined specific activity. Whole blood samples were collected for measurement of each of the following: blood total radioactivity in period 2 and plasma total radioactivity in period 1, plasma concentrations of daprodustat, and the 6 predominant circulating metabolites in periods 1 and 2. Blood samples were collected at 1, 3, and 6 hours after dosing for blood assessments. Blood samples were collected for plasma assessments before dosing and at 0.50, 1, 1.25, 1.5, 2, 3, 4, 6, 8, 10, 12, 24, 36, 48, 72, 96, 120, and 144 hours after dosing.
# Daprodustat and [^14C]‐GSK1278863 plasma concentrations were measured in treatment period 1: 6 mg daprodustat oral tablet, followed by a 1‐hour IV infusion of 50 μg [^14C]‐GSK1278863, started 1 hour after tablet administration, and in treatment period 2: 25 mg [^14C]‐GSK1278863 oral solution.
# Plasma samples from periods 1 and 2 were analyzed for daprodustat and its 6 metabolites by PPD Laboratories using a validated analytical method based on protein precipitation, followed by high‐performance liquid chromatography with tandem mass spectrometric detection analysis, as described previously.[7], [8] Specifically, the lower limit of quantification (LLQ) for this study was 0.100 ng/mL using a 100 μL aliquot of ethylenediaminetetraacetic acid plasma for all 7 analytes. The higher limit of quantification was 100 ng/mL for all 7 analytes. The data accuracy (% bias range: −2.21 to −0.400 to 0.560‐5.85) and precision (% coefficient of variation of 3.99‐7.13) met acceptable limits as recommended by the US Food and Drug Administration in their bioanalytical method validation guidelines.[17] Final PK concentration data for period 1 after 1‐hour samples for daprodustat were further corrected to account for radiolabeled ^14C dose.
# Plasma samples collected from period 1 were analyzed for [^14C]‐GSK1278863 by GSK using a validated analytical method, based on protein precipitation, followed by liquid chromatography–AMS analysis. The LLQ was 1.80 pg/mL, using a 600 μL aliquot of human plasma with a higher limit of quantification of 358.92 pg/mL. Accuracy for the 5 validation levels were between −9.2% and 2.2%, and precision was between 2.5% and 10.8%. […]
# [4] = human; ref internal GSK reports; cited from earlier work
# [5] = 39‐week study in monkeys; cited from earlier work
# [6] = ref GSK data on file; cited from earlier work
# [7] = healthy volunteers; cited from earlier work
# [8] = Period 1: 6‐mg oral tablet + 50‐μg IV
# [9] = 6 mg tablet vs 50 μg IV dose (120-fold dose difference), period 1
# [10] = 25 mg oral solution vs 6 mg oral tablet (4.17-fold dose difference)
smiles,measurement,setting,value
O=C(O)CNC(=O)C1C(=O)N(C2CCCCC2)C(=O)N(C2CCCCC2)C1=O [Daprodustat],increase in the plasma exposure of daprodustat,[1],18.6 fold
same,participants reporting AEs,[2]; 3 of 6 participants,50%
same,Back pain,[2]; [8],1 (17) n (%)
same,Decreased appetite,[2]; [8],1 (17) n (%)
same,Headache,[2]; [8],1 (17) n (%)
same,Musculoskeletal chest pain,[2]; [8],0 n (%)
same,Myalgia,[2]; [8],1 (17) n (%)
same,Oropharyngeal pain,[2]; [8],0 n (%)
same,Back pain,[2]; Period 2: 25‐mg oral solution,0 n (%)
same,Decreased appetite,[2]; Period 2: 25‐mg oral solution,0 n (%)
same,Headache,[2]; Period 2: 25‐mg oral solution,1 (17) n (%)
same,Musculoskeletal chest pain,[2]; Period 2: 25‐mg oral solution,1 (17) n (%)
same,Myalgia,[2]; Period 2: 25‐mg oral solution,0 n (%)
same,Oropharyngeal pain,[2]; Period 2: 25‐mg oral solution,1 (17) n (%)
same,Back pain,[2]; Total,1 (17) n (%)
same,Decreased appetite,[2]; Total,1 (17) n (%)
same,Headache,[2]; Total,1 (17) n (%)
same,Musculoskeletal chest pain,[2]; Total,1 (17) n (%)
same,Myalgia,[2]; Total,1 (17) n (%)
same,Oropharyngeal pain,[2]; Total,1 (17) n (%)
same,deaths or serious adverse events,[2]; both treatment periods,no deaths or serious or significant adverse events reported
same,deaths or serious adverse events,"[2]; both treatment periods, listed as daprodustat",No deaths or other SAEs
same,total number of AEs reported,"[2]; both treatment periods, N = 6",7
same,tolerability,"[2]; oral tablet, microtracer IV or oral solution dose",generally well tolerated
same,absolute bioavailability (oral F),"[3]; 6 mg oral tablet, based on AUC0‐inf",66.1%
same,"fold difference in mean AUC0‐t, oral tablet vs IV",[3]; [9],75.0 fold
same,"fold difference in mean Cmax, oral tablet vs IV",[3]; [9],47.2 fold
same,"fold increase in total exposure (AUC0‐inf), solution vs tablet",[3]; 25 mg oral solution vs 6 mg oral tablet,4.84 fold
same,"fold increase in mean AUC0‐t, solution vs tablet",[3]; [10],4.84 fold
same,"fold increase in mean Cmax, solution vs tablet",[3]; [10],5.86 fold
same,Oral F (0‐inf),"[3]; absolute bioavailability, 6 mg oral tablet vs IV microtracer, fraction, mean (SD), n = 3",0.661 (0.077)
same,clearance,"[3]; male, human, blood, 50 μg, translated from plasma CL after IV administration, read-out: blood CL (converted)",~250 mL/min
same,AUC,"[3]; male, human, plasma, iv, 50 μg, [14C] 50 μg IV infusion, mean (SD), n = 3, read-out: AUC0‐inf",2.71 ng·h/mL
same,AUC,"[3]; male, human, plasma, iv, 50 μg, [14C] 50 μg IV infusion, mean (SD), read-out: AUC0‐t",2.68 ng·h/mL
same,tmax,"[3]; male, human, plasma, iv, 50 μg, [14C] 50 μg IV infusion, read-out: tmax",1 h
same,bioavailability,"[3]; male, human, plasma, po, 6 mg, 6 mg oral tablet, based on AUC0‐inf, read-out: absolute bioavailability (oral F)",~66%
same,AUC,"[3]; male, human, plasma, po, 6 mg, 6 mg oral tablet, mean (SD), read-out: AUC0‐inf",202 ng·h/mL
same,AUC,"[3]; male, human, plasma, po, 6 mg, 6 mg oral tablet, mean (SD), read-out: AUC0‐t",201 ng·h/mL
same,tmax,"[3]; male, human, plasma, po, 6 mg, 6 mg oral tablet, read-out: tmax",~2 h
same,AUC,"[3]; male, human, plasma, po, 25 mg, [14C] 25 mg oral solution, mean (SD), read-out: AUC0‐inf",974 ng·h/mL
same,AUC,"[3]; male, human, plasma, po, 25 mg, [14C] 25 mg oral solution, mean (SD), read-out: AUC0‐t",972 ng·h/mL
same,tmax,"[3]; male, human, plasma, po, 25 mg, [14C] 25 mg oral solution, read-out: tmax",~0.5 h
same,Vd,"[3]; male, human, plasma, [14C] 50 μg IV infusion, mean (SD), n = 3, read-out: Vss",14.6 L
same,clearance,"[3]; male, human, plasma clearance, [14C] 50 μg IV infusion, mean (SD), n = 3, read-out: CL (converted)",322 mL/min
same,Cmax,"[3]; male, human, 6 mg oral tablet",97.3 ng/mL
same,half-life,"[3]; male, human, 6 mg oral tablet, mean (SD)",1.92 h
same,Cmax,"[3]; male, human, [14C] 50 μg IV infusion over 1 h",2.06 ng/mL
same,half-life,"[3]; male, human, [14C] 50 μg IV infusion, mean (SD), n = 3",2.07 h
same,Cmax,"[3]; male, human, [14C] 25 mg oral solution",570 ng/mL
same,half-life,"[3]; male, human, [14C] 25 mg oral solution, mean (SD)",2.6 h
same,tmax,[3]; 6 mg oral tablet,2.12 (1.42−4.00) h
same,tmax,[3]; [14C] 50 μg IV infusion,0.983 (0.983−0.983) h
same,tmax,[3]; [14C] 25 mg oral solution,0.500 (0.500−0.517) h
same,blood:plasma ratio,[4],1.23
same,doses at which gastric erosions were observed,[5],≥ 10 mg/kg/day
same,no observed adverse effect level,[5],3 mg/kg/day
same,protein binding,[6],> 99%
same,renal clearance,[7],≈ 0.20 mL/min

# From paper PMC9298194, “Clinical Pharmacokinetics of Daprodustat: Results of an Absorption, Distribution, and Excretion Study With Intravenous Microtracer and Concomitant Oral Doses for Bioavailability Determination” (Clinical Pharmacology in Drug Development, 2021)
